ChEMBL document CHEMBL2380257, “Discovery of a small-molecule inhibitor and cellular probe of Keap1-Nrf2 protein-protein interaction” (Bioorg Med Chem Lett, 2013)

Columns and labels:
Type in all cases: physicochemical
[1] = Stability in phosphate buffer after 24 hrs
[2] = Metabolic stability of the compound assessed as thiol group addition after 48 hrs in presence of glutathione
[3] = Metabolic stability of the compound assessed as thiol group decomposition after 48 hrs in presence of glutathione
[4] = Solubility of the compound in phosphate buffer

Stability [1]: Stable
Stability [2]: Stable
Stability [3]: Stable
solubility [4]: > 100 µM
SMILES: O=C(O)[C@H]1CCCC[C@H]1C(=O)N1CCc2ccccc2[C@H]1CN1C(=O)c2ccccc2C1=O
